Test results: patent US20190322676A1, “CERAMIDE GALACTOSYLTRANSFERASE INHIBITORS FOR THE TREATMENT OF DISEASE” (BioMarin Pharmaceutical Inc., priority 2016, published 2019)

Target: T1, human CGT (ceramide galactosyltransferase), CHO/CGT lysate (Homo sapiens, UniProt Q16880)
T1 construct: Full-length human CGT cDNA was cloned into the BamH1/Xho1 site of pcDNA3.1 (+); expressed in transfected cells; host or cells: Chinese hamster ovary (CHO) cells; lysate prepared with M-PER
T1 sequence (Q16880 21-541): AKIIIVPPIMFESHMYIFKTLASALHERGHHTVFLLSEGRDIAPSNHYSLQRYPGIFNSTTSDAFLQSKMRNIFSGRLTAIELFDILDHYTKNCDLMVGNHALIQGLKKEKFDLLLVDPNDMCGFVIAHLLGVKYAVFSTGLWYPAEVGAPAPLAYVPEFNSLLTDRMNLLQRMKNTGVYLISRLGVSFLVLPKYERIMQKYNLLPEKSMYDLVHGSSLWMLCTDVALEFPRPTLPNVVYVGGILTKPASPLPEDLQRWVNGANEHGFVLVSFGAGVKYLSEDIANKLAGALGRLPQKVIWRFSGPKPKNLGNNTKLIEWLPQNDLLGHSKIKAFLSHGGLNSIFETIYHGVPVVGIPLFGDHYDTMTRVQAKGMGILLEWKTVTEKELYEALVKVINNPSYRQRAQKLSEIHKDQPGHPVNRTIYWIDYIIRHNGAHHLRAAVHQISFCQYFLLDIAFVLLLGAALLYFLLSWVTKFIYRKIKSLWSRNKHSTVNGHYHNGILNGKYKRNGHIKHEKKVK
Experiment: CGT enzyme assay, RapidFire/MS/MS readout (Table 1 ranges with one asterisk *)
Format: biochemical
Settings: RapidFire method (range with one asterisk *)
How it was run: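 IC50s come from variable-slope dose-response fits of internal-standard-normalized C6-NBD-dihydro-galactosylceramide, measured by RapidFire/MS/MS (ESI negative). Reactions: 1 h, 37 °C, human CGT-expressing CHO lysate (4 μg), 0.001–50 μM compound, 10 μM NBD-dihydro-ceramide, 17.5 μM UDP-galactose, 0.5% DMSO, pH 7.2; 0.01% Tween 80 added for ** values.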

Row | SMILES | IC50 [µM]
1 | NC1CCN(C(=O)[C@H](NS(=O)(=O)c2ccc3cc(OC4CCCC4)ccc3c2)C(F)(F)c2ccc(Cl)cc2)CC1 [Compound 98-2, (S)—N-(3-(4-aminopiperidin-1-yl)-1-(4-chlorophenyl)-1,1-difluoro-3-oxopropan-2-yl)-6-(cyclopentyloxy)naphthalene-2-sulfonamide] | 10 to 30
2 | NC1CCN(C(=O)[C@@H](NS(=O)(=O)c2ccc3c(cnn3CC3CCCC3)c2)C(F)(F)c2ccc(Cl)cc2)CC1 [Compound 99-1, (R)—N-(3-(4-aminopiperidin-1-yl)-1-(4-chlorophenyl)-1,1-difluoro-3-oxopropan-2-yl)-1-(cyclopentylmethyl)-1H-indazole-5-sulfonamide] | 1 to 10
3 | NC1CCN(C(=O)[C@H](NS(=O)(=O)c2ccc3c(cnn3CC3CCCC3)c2)C(F)(F)c2ccc(Cl)cc2)CC1 [Compound 99-2, (S)—N-(3-(4-aminopiperidin-1-yl)-1-(4-chlorophenyl)-1,1-difluoro-3-oxopropan-2-yl)-1-(cyclopentylmethyl)-1H-indazole-5-sulfonamide] | 30 to 100
4 | NC1CC2CCC(C1)N2C(=O)[C@@H](NS(=O)(=O)c1ccc2cc(OC3CCCC3)ccc2c1)C(F)(F)c1ccc(-c2ccc(Cl)s2)cc1 (stereo partly drawn) [Compound 101-1, N-((2R)-3-(3-amino-8-azabicyclo[3.2.1]octan-8-yl)-1-(4-(5-chlorothiophen-2-yl)phenyl)-1,1-difluoro-3-oxopropan-2-yl)-6-(cyclopentyloxy)naphthalene-2-sulfonamide] | < 1
5 | NC1CC2CCC(C1)N2C(=O)[C@H](NS(=O)(=O)c1ccc2cc(OC3CCCC3)ccc2c1)C(F)(F)c1ccc(-c2ccc(Cl)s2)cc1 (stereo partly drawn) [Compound 101-2, N-((2S)-3-(3-amino-8-azabicyclo[3.2.1]octan-8-yl)-1-(4-(5-chlorothiophen-2-yl)phenyl)-1,1-difluoro-3-oxopropan-2-yl)-6-(cyclopentyloxy)naphthalene-2-sulfonamide] | 1 to 10
6 | NC1CC2CCC(C1)N2C(=O)[C@H](NS(=O)(=O)c1ccc2cc(OC3CCCC3)ccc2c1)C(F)(F)c1ccc(OC2CCCCC2)cc1 (stereo partly drawn) [Compound 102-2, N-((2S)-3-(3-amino-8-azabicyclo[3.2.1]octan-8-yl)-1-(4-(cyclohexyloxy)phenyl)-1,1-difluoro-3-oxopropan-2-yl)-6-(cyclopentyloxy)naphthalene-2-sulfonamide] | 1 to 10

More lines, now with the values ahead:

Row | IC50 [µM] | SMILES
7 | < 1 | CN([C@H](C(=O)N1CCC(N)CC1)C(F)(F)c1ccc(Cl)cc1)S(=O)(=O)c1ccc2cc(OC3CCCC3)ccc2c1 [Compound 100-1, (R)—N-(3-(4-aminopiperidin-1-yl)-1-(4-chlorophenyl)-1,1-difluoro-3-oxopropan-2-yl)-6-(cyclopentyloxy)-N-methylnaphthalene-2-sulfonamide]
8 | 10 to 30 | CN([C@@H](C(=O)N1CCC(N)CC1)C(F)(F)c1ccc(Cl)cc1)S(=O)(=O)c1ccc2cc(OC3CCCC3)ccc2c1 [Compound 100-2, (S)—N-(3-(4-aminopiperidin-1-yl)-1-(4-chlorophenyl)-1,1-difluoro-3-oxopropan-2-yl)-6-(cyclopentyloxy)-N-methylnaphthalene-2-sulfonamide]
9 | < 1 | NC1CC2CCC(C1)N2C(=O)[C@@H](NS(=O)(=O)c1ccc2cc(OC3CCCC3)ccc2c1)C(F)(F)c1ccc(OC2CCCCC2)cc1 (stereo partly drawn) [Compound 102-1, N-((2R)-3-(3-amino-8-azabicyclo[3.2.1]octan-8-yl)-1-(4-(cyclohexyloxy)phenyl)-1,1-difluoro-3-oxopropan-2-yl)-6-(cyclopentyloxy) naphthalene-2-sulfonamide]
10 | < 1 | NC1CCN(C(=O)[C@@H](NS(=O)(=O)c2ccc(OCC3CCCCC3)cc2)C(F)(F)c2ccc(OC3CCCCC3)cc2)CC1 [Compound 103-1, (R)—N-(3-(4-aminopiperidin-1-yl)-1-(4-(cyclohexyloxy)phenyl)-1,1-difluoro-3-oxopropan-2-yl)-4-(cyclohexylmethoxy)benzenesulfonamide]
